Measurements reported in ChEMBL document CHEMBL5537115, “New broad-spectrum and potent antibacterial agents with dual-targeting mechanism: Promoting FtsZ polymerization and disrupting bacterial membranes” (Eur J Med Chem, 2024).
Active and inactive are the calls of the source. The rule behind the calls is not given here.

Legend:
Staphylococcus aureus [1] = assay: Induction of resistance development in Staphylococcus aureus ATCC25923 assessed as fold increase in MIC at 0.5 times MIC measured after 32 days by multi-passage resistance assay relative to control; assay type: functional; conditions: time 32.0 day
Staphylococcus aureus [2] = assay: Effect on proton gradient of cytoplasmic membrane in Staphylococcus aureus ATCC25923 at 1 ug/ml measured after 20 mins by diSC35 dye based analysis; assay type: functional, organism-based; conditions: Cytoplasm membrane, dose 1.0 µg/ml
Enterococcus faecium [3] = assay: Antibacterial activity against vancomycin-resistant Enterococcus faecium ATCC51559 assessed as bacterial growth inhibition incubated for 20 hrs by CLSI based broth microdilution method; assay type: functional
Streptococcus pyogenes [4] = assay: Antibacterial activity against erythromycin-susceptible Streptococcus pyogenes 1 assessed as bacterial growth inhibition incubated for 20 hrs by CLSI based broth microdilution method; assay type: functional
Staphylococcus aureus [5] = assay: Antibacterial activity against Staphylococcus aureus ATCC25923 infected in Kunming mouse model assessed as bacterial growth reduction at 25 mg/kg, ip; assay type: functional, organism-based
Klebsiella pneumoniae = assay: Antibacterial activity against Klebsiella pneumoniae ATCC BAA-1902 assessed as bacterial growth inhibition incubated for 20 hrs by CLSI based broth microdilution method; assay type: functional
Bacillus subtilis [6] = assay: Selectivity ratio of MBC for penicillin-susceptible Bacillus subtilis ATCC9372 to MIC for penicillin-susceptible Bacillus subtilis ATCC9372; assay type: functional
[7] = Hemolytic activity in mouse erythrocytes at 16 ug/ml incubated for 1 hr by absorbance based assay; assay type: toxicity, cell-based, Erythrocyte; conditions: at 16 µg/mL, read-out: Activity
Enterococcus faecalis [8] = assay: Antibacterial activity against vancomycin-susceptible Enterococcus faecalis ATCC29212 assessed as bacterial growth inhibition incubated for 20 hrs by CLSI based broth microdilution method; assay type: functional
Staphylococcus aureus [9] = assay: Selectivity ratio of MBC for methicillin-resistant Staphylococcus aureus ATCC43300 to MIC for methicillin-resistant Staphylococcus aureus ATCC43300; assay type: functional
Staphylococcus aureus [10] = assay: Antibacterial activity against Staphylococcus aureus clinical isolate incubated for 18 to 24 hrs; assay type: functional; conditions: time 18-24 hrs
Acinetobacter baumannii [11] = assay: Antibacterial activity against Acinetobacter baumannii ATCC19606 incubated for 18 to 24 hrs; assay type: functional; conditions: time 18-24 hrs
Staphylococcus aureus [12] = assay: Antibacterial activity against erythromycin-susceptible Staphylococcus aureus ATCC25923 incubated for 18 to 24 hrs; assay type: functional; conditions: time 18-24 hrs
Bacillus subtilis [13] = assay: Antibacterial activity against penicillin-susceptible Bacillus subtilis ATCC9372 incubated for 18 to 24 hrs; assay type: functional; conditions: time 18-24 hrs
Streptococcus pyogenes [14] = assay: Antibacterial activity against erythromycin-resistant Streptococcus pyogenes 2 clinical isolate assessed as bacterial growth inhibition incubated for 20 hrs by CLSI based broth microdilution method; assay type: functional
Escherichia coli [15] = assay: Antibacterial activity against wild-type Escherichia coli BW25113 assessed as bacterial growth inhibition incubated for 20 hrs by CLSI based broth microdilution method; assay type: functional
Staphylococcus aureus [16] = assay: Induction of membrane potential depolarization in Staphylococcus aureus ATCC25923 measured after 20 mins by diSC35 dye based spectroscopy; assay type: functional, organism-based
Acinetobacter baumannii [17] = assay: Antibacterial activity against Acinetobacter baumannii ATCC19606 assessed as bacterial growth inhibition incubated for 20 hrs by CLSI based broth microdilution method; assay type: functional
Escherichia coli [18] = assay: Antibacterial activity against penicillin-susceptible Escherichia coli ATCC25922 assessed as bacterial growth inhibition incubated for 20 hrs by CLSI based broth microdilution method; assay type: functional
Escherichia coli [19] = assay: Disruption of outer membrane in Escherichia coli ATCC25922 measured after 10 mins by NPN dye based analysis; assay type: functional, organism-based; conditions: dose 4-16 µg/ml
Staphylococcus aureus [20] = assay: Selectivity ratio of MBC for Staphylococcus aureus clinical isolate to MIC for Staphylococcus aureus clinical isolate; assay type: functional
[21] = target: T1, Cell division protein FtsZ (Bacillus subtilis) (UniProt A5Z1V5); assay: Induction of FtsZ polymerization in Bacillus subtilis preincubated for 10 mins followed by GTP addition measured upto 30 mins by absorbance based assay; conditions: dose 2.5-10 µg/ml, time 40.0 min
T1 sequence (whole entry): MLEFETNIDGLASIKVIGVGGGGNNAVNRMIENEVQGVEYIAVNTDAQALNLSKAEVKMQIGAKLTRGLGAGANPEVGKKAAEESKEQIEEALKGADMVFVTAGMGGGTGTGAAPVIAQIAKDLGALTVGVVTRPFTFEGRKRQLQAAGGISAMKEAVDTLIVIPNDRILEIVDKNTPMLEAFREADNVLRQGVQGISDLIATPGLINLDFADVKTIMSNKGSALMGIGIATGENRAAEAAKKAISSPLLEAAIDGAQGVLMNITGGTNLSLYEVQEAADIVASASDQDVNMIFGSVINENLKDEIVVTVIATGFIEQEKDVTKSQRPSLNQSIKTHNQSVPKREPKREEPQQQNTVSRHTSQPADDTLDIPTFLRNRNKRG

Bacillus pumilus = assay: Antibacterial activity against penicillin-susceptible Bacillus pumilus CMCC63202 assessed as bacterial growth inhibition incubated for 20 hrs by CLSI based broth microdilution method; assay type: functional
Staphylococcus aureus [22] = assay: Inhibition of biofilm formation of Staphylococcus aureus ATCC25923 at 0.5 ug/ml incubated for 20 hrs by crystal violet staining based analysis relative to control; assay type: functional
Staphylococcus aureus [23] = assay: Inhibition of biofilm formation of Staphylococcus aureus ATCC25923 incubated for 20 hrs by crystal violet staining based analysis; assay type: functional, organism-based
Enterococcus faecium [24] = assay: Antibacterial activity against vancomycin-susceptible Enterococcus faecium ATCC19434 assessed as bacterial growth inhibition incubated for 20 hrs by CLSI based broth microdilution method; assay type: functional
Escherichia coli [25] = assay: Disruption of inner membrane in Escherichia coli ATCC25922 by PI staining based analysis; assay type: functional, organism-based; conditions: time 12.0 min, TDE = time-dependent effect
Staphylococcus aureus [26] = assay: Antibacterial activity against Staphylococcus aureus clinical isolate assessed as bacterial growth inhibition incubated for 20 hrs by CLSI based broth microdilution method; assay type: functional
Staphylococcus aureus [27] = assay: Antibacterial activity against methicillin-resistant Staphylococcus aureus ATCC43300 assessed as bacterial growth inhibition incubated for 20 hrs by CLSI based broth microdilution method; assay type: functional
[28] = target: T1, Cell division protein FtsZ (Bacillus subtilis); assay: Induction of FtsZ polymerization in Bacillus subtilis at 2.5 to 10 ug/ml preincubated with compound followed by GTP addition by absorbance based assay; conditions: dose 2.5-10 µg/ml, time 40.0 min, TDE = time-dependent effect
Staphylococcus aureus [29] = assay: Disruption of inner membrane in Staphylococcus aureus ATCC25923 by PI staining based analysis; assay type: functional, organism-based; conditions: time 12.0 min, TDE = time-dependent effect
Staphylococcus aureus [30] = assay: Disruption of inner membrane in Staphylococcus aureus ATCC25923 measured after 12 mins by PI staining based analysis; assay type: functional, organism-based
Staphylococcus aureus [31] = assay: Antibacterial activity against erythromycin-susceptible Staphylococcus aureus ATCC25923 assessed as bacterial growth inhibition incubated for 20 hrs by CLSI based broth microdilution method; assay type: functional
Escherichia coli [32] = assay: Induction of membrane potential depolarization in Escherichia coli ATCC25922 measured after 20 mins by diSC35 dye based spectroscopy; assay type: functional, organism-based
Staphylococcus aureus [33] = assay: Antibacterial activity against methicillin-resistant Staphylococcus aureus ATCC43300 incubated for 18 to 20 hrs; assay type: functional; conditions: time 18-20 hrs
[34] = system: Staphylococcus epidermidis; assay: Antibacterial activity against penicillin-resistant Staphylococcus epidermidis clinical isolate assessed as bacterial growth inhibition incubated for 20 hrs by CLSI based broth microdilution method; assay type: functional
Escherichia coli [35] = assay: Disruption of inner membrane in Escherichia coli ATCC25922 measured after 12 mins by PI staining based analysis; assay type: functional, organism-based
Staphylococcus aureus [36] = assay: Induction of morphological change in Staphylococcus aureus ATCC25923 assessed as leakage of cell contents at 16 times MIC incubated for 2 hrs by TEM analysis; assay type: functional, organism-based
Enterococcus faecalis [37] = assay: Antibacterial activity against vancomycin-resistant Enterococcus faecalis ATCC51299 assessed as bacterial growth inhibition incubated for 20 hrs by CLSI based broth microdilution method; assay type: functional
Bacillus subtilis [38] = assay: Antibacterial activity against penicillin-susceptible Bacillus subtilis ATCC9372 assessed as bacterial growth inhibition incubated for 20 hrs by CLSI based broth microdilution method; assay type: functional
Staphylococcus aureus [39] = assay: Antibacterial activity against penicillin-resistant Staphylococcus aureus ATCC31007 assessed as bacterial growth inhibition incubated for 20 hrs by CLSI based broth microdilution method; assay type: functional
[40] = target: T1, Cell division protein FtsZ (Bacillus subtilis); assay: Induction of FtsZ polymerization in Bacillus subtilis assessed as bundling of FtsZ protofilaments at 10 ug/ml preincubated for 15 mins followed by GTP addition measured after 10 mins by TEM analysis; conditions: dose 10.0 µg/ml, time 25.0 min
Acinetobacter baumannii [41] = assay: Selectivity ratio of MBC for Acinetobacter baumannii ATCC19606 to MIC for Acinetobacter baumannii ATCC19606; assay type: functional
Staphylococcus aureus [42] = assay: Induction of morphological change in Staphylococcus aureus ATCC25923 assessed as loss of bacterial membrane integrity at 16 times MIC incubated for 2 hrs by TEM analysis; assay type: functional, organism-based
[43] = Hemolytic activity in mouse erythrocytes at 8 ug/ml incubated for 1 hr by absorbance based assay; assay type: toxicity, cell-based, Erythrocyte; conditions: at 8 µg/mL, read-out: Activity
Staphylococcus aureus [44] = assay: Selectivity ratio of MBC for erythromycin-susceptible Staphylococcus aureus ATCC25923 to MIC for erythromycin-susceptible Staphylococcus aureus ATCC25923; assay type: functional
Bacillus subtilis [45] = assay: Induction of morphological change in Bacillus subtilis ATCC9372 assessed as increase in cell length at 0.5 times MIC by phase contrast microscopy; assay type: functional, organism-based
Escherichia coli [46] = assay: Disruption of outer membrane in Escherichia coli ATCC25922 at 16 ug/ml measured after 10 mins by NPN dye based analysis; assay type: functional, organism-based; conditions: dose 16.0 µg/ml
Staphylococcus aureus [47] = assay: Disruption of inner membrane in Staphylococcus aureus ATCC25923 at 0.5 ug/ml measured after 12 mins by PI staining based analysis; assay type: functional, organism-based; conditions: dose 0.5 µg/ml

CO[C@H]1/C=C/O[C@@]2(C)Oc3c(C)c(O)c4c(O)c(c(/C=N/N5CCN(C)CC5)c(O)c4c3C2=O)NC(=O)/C(C)=C\C=C\[C@H](C)[C@H](O)[C@@H](C)[C@@H](O)[C@@H](C)[C@H](OC(C)=O)[C@@H]1C
fold change (FC) (Staphylococcus aureus [1]): 8192

C[n+]1ccc(/C=C/c2ccccc2)c(-c2ccccc2)c1
Activity (Staphylococcus aureus [2]): inactive

Cc1ccccc1-c1c[n+](C)c(-c2ccc(C(C)(C)C)cc2)cc1/C=C/c1ccc(C(C)(C)C)cc1.[I-]
MIC (Enterococcus faecium [3]): 0.5 mg/L
MIC (Streptococcus pyogenes [4]): 2 mg/L
Activity (Staphylococcus aureus [5]): Active
MIC (Klebsiella pneumoniae): 4 mg/L
Ratio (Bacillus subtilis [6]): 32
hemolysis at 1 h, 16 ug/ml [7]: 18.9%
MIC (Enterococcus faecalis [8]): 1 mg/L
Ratio (Staphylococcus aureus [9]): 1
MBC (Staphylococcus aureus [10]): 0.5 mg/L
MBC (Acinetobacter baumannii [11]): 2 mg/L
MBC (Staphylococcus aureus [12]): 0.5 mg/L
MBC (Bacillus subtilis [13]): 4 mg/L
MIC (Streptococcus pyogenes [14]): 2 mg/L
MIC (Escherichia coli [15]): 2 mg/L
Activity (Staphylococcus aureus [16]): Dose-Dependent Effect
MIC (Acinetobacter baumannii [17]): 0.5 mg/L
MIC (Escherichia coli [18]): 4 mg/L
Activity (Escherichia coli [19]): Dose-Dependent Effect
Ratio (Staphylococcus aureus [20]): 2
Activity [21]: Dose-Dependent Effect
MIC (Bacillus pumilus): 0.5 mg/L
inhibition at 0.5 µg/mL (Staphylococcus aureus [22]): 28.8%
inhibition (Staphylococcus aureus [23]): Dose-Dependent Effect
MIC (Enterococcus faecium [24]): 0.125 mg/L
Activity (Escherichia coli [25]): Tde
MIC (Staphylococcus aureus [26]): 0.25 mg/L
MIC (Staphylococcus aureus [27]): 0.25 mg/L
Activity [28]: Tde
fold change (FC) (Staphylococcus aureus [1]): 2
Activity (Staphylococcus aureus [29]): Tde
Activity (Staphylococcus aureus [30]): Dose-Dependent Effect
MIC (Staphylococcus aureus [31]): 0.125 mg/L
Activity (Escherichia coli [32]): Dose-Dependent Effect
MBC (Staphylococcus aureus [33]): 0.25 mg/L
MIC [34]: 0.5 mg/L
Activity (Escherichia coli [35]): Dose-Dependent Effect
Activity (Staphylococcus aureus [36]): Active
MIC (Enterococcus faecalis [37]): 0.25 mg/L
MIC (Bacillus subtilis [38]): 0.125 mg/L
MIC (Staphylococcus aureus [39]): 1 mg/L
Activity [40]: Active
Ratio (Acinetobacter baumannii [41]): 4
Activity (Staphylococcus aureus [42]): Active
hemolysis at 1 h, 8 ug/ml [43]: 8.29%
Ratio (Staphylococcus aureus [44]): 4
Activity (Bacillus subtilis [45]): Active

C[n+]1cc(-c2ccccc2)c(/C=C/c2ccccc2)cc1-c1ccc(C(C)(C)C)cc1
Activity (Staphylococcus aureus [2]): inactive
Activity (Escherichia coli [46]): Active
Activity (Staphylococcus aureus [47]): Active

C[n+]1cc2c3c(ccc2c2ccc4cc5c(cc4c21)OCO5)OCO3
MIC (Enterococcus faecium [3]): 32 mg/L
MIC (Streptococcus pyogenes [4]): 2 mg/L
MIC (Klebsiella pneumoniae): 64 mg/L
Ratio (Bacillus subtilis [6]): 16
MIC (Enterococcus faecalis [8]): 16 mg/L
MBC (Staphylococcus aureus [10]): > 64 mg/L
MBC (Acinetobacter baumannii [11]): > 64 mg/L
MBC (Staphylococcus aureus [12]): > 64 mg/L
MBC (Bacillus subtilis [13]): 64 mg/L
MIC (Streptococcus pyogenes [14]): 2 mg/L
MIC (Escherichia coli [15]): 64 mg/L
MIC (Acinetobacter baumannii [17]): 64 mg/L
MIC (Escherichia coli [18]): 32 mg/L
MIC (Bacillus pumilus): 4 mg/L
MIC (Enterococcus faecium [24]): 64 mg/L
MIC (Staphylococcus aureus [26]): 8 mg/L
MIC (Staphylococcus aureus [27]): 8 mg/L
MIC (Staphylococcus aureus [31]): 4 mg/L
MBC (Staphylococcus aureus [33]): > 64 mg/L
MIC [34]: 8 mg/L
MIC (Enterococcus faecalis [37]): 32 mg/L
MIC (Bacillus subtilis [38]): 4 mg/L
MIC (Staphylococcus aureus [39]): 16 mg/L
Ratio (Staphylococcus aureus [44]): >32
